Results as given in patent US12617779B2, “Self degradation-type CDK9 inhibitor prodrug and liposome encapsulating same” (Sumitomo Pharma Co., Ltd., priority 2021, dated 2026).
One block for each compound: values may come before it.

Experiment: Evaluation of conversion rate to active form in buffer solution (Experimental Example 1)
Type: physicochemical
Details: for Stability in buffer solution at pH 5: pH 5, 37° C., up to 2 or 3 hours
In short: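 Prodrugs were held at 25 umol/L and 37° C in 50 mM citrate (pH 5.0, 5.5) or 50 mM phosphate (pH 6.0–7.4) buffer. Parent remaining and Alvocidib formed were quantified by HPLC at 0, 0.5, 1, 2 and 3 hours.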

- Production rate of Alvocidib (pH5.0, 0 hr): 2.8%
- Residual rate (pH5.0, 0 hr): 96.8%
- Stability in buffer solution at pH 5: unstable
- Production rate of Alvocidib (pH5.0, 0.5 hr): 5.7%
- Residual rate (pH5.0, 0.5 hr): 93.9%
- Production rate of Alvocidib (pH5.0, 1 hr): 9.7%
- Residual rate (pH5.0, 1 hr): 90.1%
- Production rate of Alvocidib (pH5.0, 2 hr): 15.7%
- Residual rate (pH5.0, 2 hr): 83.8%
- Production rate of Alvocidib (pH5.0, 3 hr): 21.9%
- Residual rate (pH5.0, 3 hr): 77.6%
- Production rate of Alvocidib (pH5.5, 0 hr): 2.7%
- Residual rate (pH5.5, 0 hr): 97.0%
- Production rate of Alvocidib (pH5.5, 0.5 hr): 7.9%
- Residual rate (pH5.5, 0.5 hr): 91.9%
- Production rate of Alvocidib (pH5.5, 1 hr): 14.3%
- Residual rate (pH5.5, 1 hr): 85.4%
- Production rate of Alvocidib (pH5.5, 2 hr): 23.8%
- Residual rate (pH5.5, 2 hr): 75.9%
- Production rate of Alvocidib (pH5.5, 3 hr): 33.1%
- Residual rate (pH5.5, 3 hr): 66.6%
- Production rate of Alvocidib (pH6.0, 0 hr): 3.4%
- Residual rate (pH6.0, 0 hr): 96.4%
- Production rate of Alvocidib (pH6.0, 0.5 hr): 26.1%
- Residual rate (pH6.0, 0.5 hr): 73.9%
- Production rate of Alvocidib (pH6.0, 1 hr): 48.3%
- Residual rate (pH6.0, 1 hr): 51.7%
- Production rate of Alvocidib (pH6.0, 2 hr): 70.9%
- Residual rate (pH6.0, 2 hr): 28.9%
- Production rate of Alvocidib (pH6.0, 3 hr): 84.8%
- Residual rate (pH6.0, 3 hr): 15.2%
- Production rate of Alvocidib (pH6.5, 0 hr): 3.9%
- Residual rate (pH6.5, 0 hr): 96.0%
- Production rate of Alvocidib (pH6.5, 0.5 hr): 34.7%
- Residual rate (pH6.5, 0.5 hr): 65.3%
- Production rate of Alvocidib (pH6.5, 1 hr): 61.2%
- Residual rate (pH6.5, 1 hr): 38.8%
- Production rate of Alvocidib (pH6.5, 2 hr): 83.2%
- Residual rate (pH6.5, 2 hr): 16.8%
- Production rate of Alvocidib (pH6.5, 3 hr): 93.4%
- Residual rate (pH6.5, 3 hr): 6.6%
- Production rate of Alvocidib (pH7.0, 0 hr): 4.1%
- Residual rate (pH7.0, 0 hr): 95.9%
- Production rate of Alvocidib (pH7.0, 0.5 hr): 37.3%
- Residual rate (pH7.0, 0.5 hr): 62.6%
- Production rate of Alvocidib (pH7.0, 1 hr): 64.3%
- Residual rate (pH7.0, 1 hr): 35.5%
- Production rate of Alvocidib (pH7.0, 2 hr): 85.8%
- Residual rate (pH7.0, 2 hr): 14.2%
- Production rate of Alvocidib (pH7.0, 3 hr): 94.9%
- Residual rate (pH7.0, 3 hr): 5.1%
- Production rate of Alvocidib (pH7.4, 0 hr): 4.2%
- Residual rate (pH7.4, 0 hr): 95.3%
- Production rate of Alvocidib (pH7.4, 0.5 hr): 36.7%
- Residual rate (pH7.4, 0.5 hr): 63.0%
- Production rate of Alvocidib (pH7.4, 1 hr): 63.5%
- Residual rate (pH7.4, 1 hr): 36.3%
- Production rate of Alvocidib (pH7.4, 2 hr): 84.7%
- Residual rate (pH7.4, 2 hr): 15.3%
- Production rate of Alvocidib (pH7.4, 3 hr): 94.4%
- Residual rate (pH7.4, 3 hr): 5.6%
SMILES: C[C@H](N)C(=O)O[C@@H]1CN(C)CC[C@@H]1c1c(O)cc(O)c2c(=O)cc(-c3ccccc3Cl)oc12 [Comparative Example 7, reference compound]

- Production rate of Alvocidib (pH5.0, 0 hr): 5.0%
- Residual rate (pH5.0, 0 hr): 85.7%
- Stability in buffer solution at pH 5: unstable
- Production rate of Alvocidib (pH5.0, 0.5 hr): 7.1%
- Residual rate (pH5.0, 0.5 hr): 84.0%
- Production rate of Alvocidib (pH5.0, 1 hr): 8.7%
- Residual rate (pH5.0, 1 hr): 82.6%
- Production rate of Alvocidib (pH5.0, 2 hr): 12.8%
- Residual rate (pH5.0, 2 hr): 79.4%
- Production rate of Alvocidib (pH5.0, 3 hr): 15.6%
- Residual rate (pH5.0, 3 hr): 77.0%
- Production rate of Alvocidib (pH5.5, 0 hr): 4.9%
- Residual rate (pH5.5, 0 hr): 86.0%
- Production rate of Alvocidib (pH5.5, 0.5 hr): 8.5%
- Residual rate (pH5.5, 0.5 hr): 83.3%
- Production rate of Alvocidib (pH5.5, 1 hr): 11.3%
- Residual rate (pH5.5, 1 hr): 81.1%
- Production rate of Alvocidib (pH5.5, 2 hr): 17.7%
- Residual rate (pH5.5, 2 hr): 78.4%
- Production rate of Alvocidib (pH5.5, 3 hr): 22.4%
- Residual rate (pH5.5, 3 hr): 74.2%
- Production rate of Alvocidib (pH6.0, 0 hr): 5.0%
- Residual rate (pH6.0, 0 hr): 86.0%
- Production rate of Alvocidib (pH6.0, 0.5 hr): 17.1%
- Residual rate (pH6.0, 0.5 hr): 76.5%
- Production rate of Alvocidib (pH6.0, 1 hr): 26.0%
- Residual rate (pH6.0, 1 hr): 69.2%
- Production rate of Alvocidib (pH6.0, 2 hr): 43.4%
- Residual rate (pH6.0, 2 hr): 53.9%
- Production rate of Alvocidib (pH6.0, 3 hr): 54.0%
- Residual rate (pH6.0, 3 hr): 44.3%
- Production rate of Alvocidib (pH6.5, 0 hr): 5.1%
- Residual rate (pH6.5, 0 hr): 86.0%
- Production rate of Alvocidib (pH6.5, 0.5 hr): 20.9%
- Residual rate (pH6.5, 0.5 hr): 74.7%
- Production rate of Alvocidib (pH6.5, 1 hr): 31.1%
- Residual rate (pH6.5, 1 hr): 66.2%
- Production rate of Alvocidib (pH6.5, 2 hr): 49.6%
- Residual rate (pH6.5, 2 hr): 49.4%
- Production rate of Alvocidib (pH6.5, 3 hr): 60.2%
- Residual rate (pH6.5, 3 hr): 39.1%
- Production rate of Alvocidib (pH7.0, 0 hr): 5.3%
- Residual rate (pH7.0, 0 hr): 85.9%
- Production rate of Alvocidib (pH7.0, 0.5 hr): 21.7%
- Residual rate (pH7.0, 0.5 hr): 75.8%
- Production rate of Alvocidib (pH7.0, 1 hr): 30.7%
- Residual rate (pH7.0, 1 hr): 68.1%
- Production rate of Alvocidib (pH7.0, 2 hr): 47.2%
- Residual rate (pH7.0, 2 hr): 52.8%
- Production rate of Alvocidib (pH7.0, 3 hr): 57.1%
- Residual rate (pH7.0, 3 hr): 42.9%
- Production rate of Alvocidib (pH7.4, 0 hr): 5.6%
- Residual rate (pH7.4, 0 hr): 85.3%
- Production rate of Alvocidib (pH7.4, 0.5 hr): 22.1%
- Residual rate (pH7.4, 0.5 hr): 76.2%
- Production rate of Alvocidib (pH7.4, 1 hr): 29.7%
- Residual rate (pH7.4, 1 hr): 70.3%
- Production rate of Alvocidib (pH7.4, 2 hr): 44.0%
- Residual rate (pH7.4, 2 hr): 56.0%
- Production rate of Alvocidib (pH7.4, 3 hr): 53.3%
- Residual rate (pH7.4, 3 hr): 46.7%
SMILES: CN1CC[C@H](c2c(O)cc(O)c3c(=O)cc(-c4ccccc4Cl)oc23)[C@H](OC(=O)[C@@H](N)CO)C1 [Comparative Example 9, reference compound]
